Data: article PMC9321647, “Curcumin-Based β-Diketo Ligands for Ga^3+: Thermodynamic Investigation of Potential Metal-Based Drugs” (Pharmaceuticals, 2022)
Like-named read-outs stand apart in the source and are kept apart here.

Assays:
[1] = Spectrophotometric pH titrations of ligands (protonation constants, pKa); type: physicochemical; conditions: 298 K; for logβ011 overall protonation constant / logβ012 overall protonation constant / logβ013 overall protonation constant: HypSpec, spectrophotometric data; for pKa: aqueous solution (methanol stock diluted in water)
Description: UV–visible spectra were recorded with a JASCO V-570 UV/Vis/NIR spectrophotometer at 298 K in the 250–600 nm spectral range employing quartz cells (1 cm optical path). To perform spectrophotometric titrations, ligands (denoted generally as L in the following) were dissolved in methanol to give a mother solution (2.50 mM), that was then diluted in water in order to obtain a final concentration of 50 μM. The metal/ligand (M:L) solutions were obtained by adding appropriate quantities of Ga(NO3)3 as methanol solutions (5–10 mM) in order to obtain the metal-to-ligand 1:1 molar ratio (L = 50 μM and V = 25 mL). For both L and M:L systems, pH (initial value of about 5) was varied by adding small amounts (<1 μL) of concentrated NaOH (4 M) up to ca. pH 11, thus to consider volume variations negligible. To evaluate the complexation ratio, constant additions of the M solution (10 µL each time, M = 10^–2 M) were dropped into the ligand solution (V = 25 mL, L = 50 μM) using a micropipette in order to reach different M:L molar ratios. A constant ionic strength (NaNO3, 0.1 M) was maintained in all experiments. Spectrophotometric investigations of iron(III) systems were performed in the same conditions; the Fe^3+ solution was freshly prepared in methanol starting from Fe(NO3)3·9H2O. The overall protonation constants (logβqr) and the overall stability constants of metal complexes (logβpqr) were evaluated from spectrophotometric data. The stability constants (βpqr), defined by the following equations:(3) pM^m++qL^l^−+rH^+⇌MpLqHr(mp−lq+r) (4) βpqr=[MpLqHr(mp−lq+r)]/[M^m+]^p·[L^l−]^q·[H^+]^r where L is the ligand in the completely dissociated form and H is proton, were refined using least-squares calculation in HypSpec. The results of least-squares calculation include the standard deviations and correlation coefficients of the refined parameters. The quantities are obtained by performing error propagation calculation from the experimental errors onto the parameters. The stability constant refinement furnishes least-squares estimates of the standard deviation, σ, of the stability constant β. The error on logβ is calculated as follows: σ(logβ) = [log(β + σ) − log(β − σ)]/2.

[2] = DPPH radical-scavenging assay; conditions: free ligand
Description: The antioxidant activity of compounds 4 and 5 and their Ga^3+ metal complexes at the M:L 1:1 and 1:2 molar ratio was evaluated in terms of hydrogen-donating or radical scavenging ability using a stable DPPH radical, 1,1-diphenyl-2-picrylhydrazyl radical, following the procedure previously reported. The percentage of inhibition (%In) of the DPPH radical by each sample was calculated according to the following formula: %In=A0−At/A0×100 where A0 represents the absorbance of the control (DPPH radical) at time 0, while At refers to the absorbance of the mixture antioxidant/DPPH at time t (120 min). Values of absorbance were corrected considering volume dilution. All the determinations were performed in duplicate.

[3] = Keto-enol/diketo tautomer amounts by 1H NMR; type: physicochemical; conditions: molar percentage, MeOD-d4, 298 K; for KE (%) amount of keto–enol form: for 2 includes KE form of the Z isomer (6%)
Description: NMR spectra were recorded by means of a Bruker Biospin FT-NMR AVANCE III HD (600 MHz) spectrometer equipped with a CryoProbe BBO H&F 5 mm in inverse detection. The nominal frequencies were 150.90 MHz for ^13C and 600.13 MHz for ^1H, respectively. For each sample, 1–5 mg were weighed and diluted up to 0.6 mL with a proper solvent in a 5 mm NMR tube; 90° pulse was calibrated for each sample, and standard NMR parameters were used to achieve quantitative results (relaxation delay, 10 s). Proton and carbon chemical shifts are given in parts per million (ppm) versus external TMS and were determined by reference to the solvent residual signals. Typical 2D homo- and heteronuclear techniques were used for assignment, i.e., ^1H,^1H COSY, ^1H,^13C HSQC, ^1H,^13C HMBC. NMR investigations of Ga^3+:L systems were performed in MeOD-d4 by adding small amounts of a Ga(NO3)3 solution (10 μL each) to 1 mM ligand solution (0.6 mL) until reaching the desired metal-to-ligand molar ratio. The complexation reaction is fast, and spectra were registered few minutes after the addition. Two-dimensional ^1H,^13C heteronuclear multiple bond correlation (HMBC) experiments (hmbcgpndqf in Bruker library) were performed via heteronuclear zero and double quantum coherence, optimized on long-range couplings (^3/4JHC = 8 Hz), with no decoupling during acquisition, and gradient pulses were used for selection. The relative percentages of the isomeric forms were estimated on the basis of the NMR data. Particularly, ^1H NMR spectra were acquired in quantitative conditions being D1 (relaxation delay) at least five times the T1 of the slowest relaxing signal of interest. The raw data were Fourier-transformed, and then the processing was performed by zero filling (SI = TD), line broadening (lb 0.3 Hz), accurate phasing and correcting the baseline. The most isolated signals were selected for integration, i.e., the vinyl protons (H-3 and H-4), and an average of the integrated area (A) of H-3 and H-4 was used for relative quantitation, according to the following equation: %Tautomeri=(A(H−3)i+(A(H−4)i)/2/∑i(A(H−3)i+(A(H−4)i)/2×100

[4] = tested on: HCT116 colon carcinoma cells; assay: MTT cell viability assay; type: cell-based, Human; conditions: mean
Description: Human colorectal carcinoma HCT116 cells (#91091005, ECACC) were grown in an IMDM medium (Biowest) supplemented with 2 mM glutamine, 100 IU/mL penicillin, 100 μg/mL streptomycin and 10% FBS (Gibco). The cell lines were grown at 37 °C in a humidified incubator containing 5% CO2. The cells were verified to be mycoplasma-free and passaged < 3 months. The inhibition of cell proliferation was measured by colorimetric 3-(4,5-dimethylthiazol-2-yl)-2,5-diphenyltetrazolium bromide (MTT) assay. GI50 concentrations were determined using the CompuSyn software version 1.0 (ComboSyn, Inc., Paramus, NJ USA) (free download via www.combosyn.com, accessed on 30 May 2022), and statistical analyses were performed using the GraphPad PRISM software (version 6.01 for Windows, GraphPad Software, San Diego, California USA GraphPad Prism) using unpaired t-test. Data were considered to be statistically significant if p < 0.05 (*), p < 0.01 (**), p < 0.001(***) and p < 0.0001 (****).

[5] = calculated from logβ values, * = keto–enol moiety dissociation

| logβ011 overall protonation constant [1] | logβ012 overall protonation constant [1] | logβ013 overall protonation constant [1] | pKa1 [1, 5] | pKa2 [1, 5] | pKa3 [1, 5] | IC50 [2] [µM] | KK (%) amount of diketo form [3] [%] | KE (%) amount of keto–enol form [3] [%] | GI50 ([4]; HCT116, 48 h of treatment) [µM] | pKa ([1]; calculated from logβ values, * = keto–enol moiety dissociation, read-out: pKa1) | pKa ([1]; calculated from logβ values, * = keto–enol moiety dissociation, read-out: pKa2) | pKa ([1]; calculated from logβ values, * = keto–enol moiety dissociation, read-out: pKa3) | GI50 ([4]; Homo sapiens, HCT-116, HCT116, 48 h of treatment) [µM] | Molecule |
| --- | --- | --- | --- | --- | --- | --- | --- | --- | --- | --- | --- | --- | --- | --- |
| 10.44 (3) | 20.45 (2) | 29.58 (4) | 9.13 (6) | 10.01 (5) | 10.44 (3) | 32 | 30 | 70 | 8.76 |  |  |  |  | 2-((4Z,6E)-5-hydroxy-7-(4-hydroxyphenyl)-4-((E)-3-(4-hydroxy-3-ethoxyphenyl) acryloyl) hepta-4,6-dien-1-yl)isoindoline-1,3-dione [Compound 5] |
| 10.78 (4) | 20.44 (6) | 29.44 (6) |  |  |  | 20 | 53 | 47 |  | 9 | 9.66 | 10.8 | 5.36 | COc1cc(/C=C/C(=O)C(CCCN2C(=O)c3ccccc3C2=O)C(=O)/C=C/c2ccc(O)c(OC)c2)ccc1O [Compound 4] |
